Type in all cases: cell-based
Assay [1] has as its target T1, human α4β2 nicotinic receptor, 3:2 (α4:β2) stoichiometry; (α4)3(β2)2 (Homo sapiens, UniProt P17787+P43681). The assay can be described thus: two-electrode voltage clamp, Xenopus oocytes, direct activation. Particulars: 200 μM compound alone; weak agonism.
Assay [2] addresses human α4β2 nicotinic receptor, 2:3 stoichiometry; (α4)2(β2)3 (Homo sapiens, UniProt P17787+P43681). The description is as above. The settings on record: 200 μM compound alone; weak agonism.
The target of assay [3] is T1, human α4β2 nicotinic receptor, 3:2 (α4:β2) stoichiometry; (α4)3(β2)2. As to the kind of experiment: two-electrode voltage clamp, Xenopus oocytes. The settings on record: agonist. In general terms: In two-electrode clamp one electrode senses voltage and the other passes current.

T1 sequence (P43681 27-627): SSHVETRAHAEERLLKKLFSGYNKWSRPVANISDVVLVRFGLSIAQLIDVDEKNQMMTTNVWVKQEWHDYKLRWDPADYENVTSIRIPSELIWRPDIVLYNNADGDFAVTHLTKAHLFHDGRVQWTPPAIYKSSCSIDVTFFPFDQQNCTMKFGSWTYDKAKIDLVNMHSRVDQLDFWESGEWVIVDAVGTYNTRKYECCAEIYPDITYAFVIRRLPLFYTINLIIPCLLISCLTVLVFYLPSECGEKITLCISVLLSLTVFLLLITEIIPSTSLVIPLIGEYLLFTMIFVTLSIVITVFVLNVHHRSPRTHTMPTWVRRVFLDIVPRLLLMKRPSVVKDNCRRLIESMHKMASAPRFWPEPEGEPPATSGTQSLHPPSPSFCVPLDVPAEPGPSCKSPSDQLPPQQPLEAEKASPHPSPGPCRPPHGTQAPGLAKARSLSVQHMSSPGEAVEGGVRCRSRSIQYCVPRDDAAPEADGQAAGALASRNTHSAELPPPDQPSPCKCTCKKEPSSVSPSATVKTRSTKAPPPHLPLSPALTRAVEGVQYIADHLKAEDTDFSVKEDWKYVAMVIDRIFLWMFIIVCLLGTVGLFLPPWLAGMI
T1 sequence (P17787 26-502): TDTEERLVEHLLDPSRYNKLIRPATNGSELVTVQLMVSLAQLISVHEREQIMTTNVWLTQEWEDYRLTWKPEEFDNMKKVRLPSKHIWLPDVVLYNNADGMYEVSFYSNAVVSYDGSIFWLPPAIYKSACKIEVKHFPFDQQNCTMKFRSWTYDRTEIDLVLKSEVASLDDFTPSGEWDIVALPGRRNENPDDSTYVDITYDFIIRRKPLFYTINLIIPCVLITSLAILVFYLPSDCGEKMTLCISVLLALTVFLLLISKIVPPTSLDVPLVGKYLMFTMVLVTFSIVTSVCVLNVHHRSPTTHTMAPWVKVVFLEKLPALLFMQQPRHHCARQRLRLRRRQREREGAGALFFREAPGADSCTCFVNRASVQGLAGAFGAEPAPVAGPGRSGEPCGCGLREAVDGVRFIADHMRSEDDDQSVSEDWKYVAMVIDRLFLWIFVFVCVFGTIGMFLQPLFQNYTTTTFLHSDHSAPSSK
Sequence of human α4β2 nicotinic receptor, 2:3 stoichiometry; (α4)2(β2)3 (P43681 27-627): as the sequence (P43681 27-627) above
Sequence of human α4β2 nicotinic receptor, 2:3 stoichiometry; (α4)2(β2)3 (P17787 26-502): as the sequence (P17787 26-502) above

For the molecule `C[N@@+]1([O-])CCC[C@H]1c1cccnc1` [trans-nicotine-N-oxide], the “relative peak response, % of 1 mM ACh response, at 200 μM” value in assay [1] came out at 1.7 ± 0.3%. The “relative peak response, % of saturating ACh response, at 200 μM” value in assay [2] came to 5.7 ± 1.1%.
Take `CC(=O)OCC[N+](C)(C)C` [acetylcholine]: the EC3 in assay [3] is given as ~ 1 μM.

Values taken from publication PMC5599305 (The pharmacogenomics journal, 2017).
